15 compounds from patent US12473305B2, “Pyrazole boronic acid compound, pharmaceutical composition containing same, and uses thereof” (BEIJING SONGRUN PHARMACEUTICAL TECHNOLOGY CO., LTD., priority 2020, dated 2025) can be followed below.

In assay [1] the test system is non-small cell lung cancer cell line A549. Description: CellTiter-Glo tumor cell proliferation, A549. It is filed as cell-based, human. The settings on record: 72 h; for inhibition at 1 µM / inhibition at 10 µM: read-out: Inhibition rate A549 (%); for IC50: CellTiter-Glo. As for the experimental part:
(§1) The effect of compounds on tumor cell proliferation was detected by CellTiter-Glo method. Human melanoma cell line A375, non-small cell lung cancer cell line A549, human lung adenocarcinoma cell line H1299, colorectal cancer cell line HCT116, liver cancer cell line HepG2 and gastric cancer cell line MGC80-3 were cultured in vitro. The cells were collected after growing to the logarithmic growth phase, centrifuged at 1000 rpm for 5 min, and suspended in an appropriate amount of medium after discarding the supernatant, and the cell concentration was adjusted to 2×10^4/mL. The cell suspension was inoculated onto the 384-well cell culture plate, with 50 μL per well. After being cultured in a cell incubator (37° C., 5% CO2) for 24 h, 5 μL of drug diluted by the cell culture medium was added into each well for the treatment group. Each drug was provided in triplicate. After 72 h incubation in the incubator, 20 μL of CellTiter-Glo was added into each well, and the relative luminescence unit (RLU) was measured with Multimode Microplate Reader Varioskan Flash (Thermo Scientific, USA) after placed at 37° C. for 20 min, and compared with the RLU of the control group. SigmaPlot 10.0 software was used to calculate the inhibition rate and IC50 value.
Background: ATP-based viability assays read luminescence as a measure of living cells.

In assay [2] the test system is colorectal cancer cell line HCT116. The assay is described as follows: CellTiter-Glo tumor cell proliferation, HCT116. Format: cell-based, human. The settings on record: 72 h; for inhibition at 1 µM / inhibition at 10 µM: read-out: Inhibition rate HCT116 (%); for IC50: CellTiter-Glo. As for the experimental part:
as §1

Assay [3] has as its system Human melanoma cell line A375. The assay is described as follows: CellTiter-Glo tumor cell proliferation, A375. Format: cell-based. The settings on record: 72 h; for inhibition at 1 µM / inhibition at 10 µM: read-out: Inhibition rate A375 (%); for IC50: CellTiter-Glo. Here is the method:
as §1

Each structure is given as a SMILES string. Structures can show the parent of a compound that is named as a salt.

A word on the inhibition: it is the percentage by which the read-out fell short of the control. For orientation: IC50 means the concentration that inhibits the measured activity by half. For `CC(C)C[C@H](NC(=O)Cn1nc(-c2cccc(OS(=O)(=O)c3cccc(C(F)(F)F)c3)c2)cc1-c1ccccc1)B(O)O` [Compound 11, (R)-(3-methyl-1-(2-(5-phenyl-3-(3-(((3-(trifluoromethyl)phenyl)sulfonyl)oxy)phenyl)-1H-pyrazol-1-yl)acetamido)butyl)boronic acid], the inhibition at 1 µM is 63.4% in assay [1] (Homo sapiens, A549); 95.4% in assay [2] (Homo sapiens, HCT-116); 90.2% in assay [3] (Homo sapiens, A-375). Besides, the inhibition at 10 µM in assay [1] (Homo sapiens, A549) was 90.3%; in assay [2] (Homo sapiens, HCT-116), 98.4%; in assay [3] (Homo sapiens, A-375), 98.8%. Besides, the IC50 in assay [1] (Homo sapiens, A549) worked out at 1060 nM; in assay [2] (Homo sapiens, HCT-116), 700 nM; in assay [3] (Homo sapiens, A-375), 2600 nM.

For `CC(C)C[C@H](NC(=O)Cn1nc(-c2ccccc2OS(=O)(=O)c2cccc(C(F)(F)F)c2)cc1-c1ccc(OCc2ccccc2)cc1)B(O)O` [Compound 23, (R)-(1-(2-(5-(4-(benzyloxy)phenyl)-3-(2-(((3-(trifluoromethyl)phenyl)sulfonyl)oxy)phenyl)-1H-pyrazol-1-yl)acetamido)-3-methylbutyl)boronic acid], the inhibition at 1 µM turned out to be 7.4% in assay [1] (Homo sapiens, A549); 2.6% in assay [2] (Homo sapiens, HCT-116); 5.7% in assay [3] (Homo sapiens, A-375). Also, the inhibition at 10 µM came to 63.4% in assay [1] (Homo sapiens, A549); 55.6% in assay [2] (Homo sapiens, HCT-116); 77% in assay [3] (Homo sapiens, A-375).

With `CC(C)C[C@H](NC(=O)Cn1nc(-c2ccccc2OS(=O)(=O)c2cccc(C(F)(F)F)c2)cc1-c1ccc(S(C)(=O)=O)cc1)B(O)O` [Compound 19, (R)-(1-(2-(5-(4-(methylsulfonyl)phenyl)-3-(2-(((3-(trifluoromethyl)phenyl)sulfonyl)oxy)phenyl)-1H-pyrazol-1-yl)acetamido)-3-methylbutyl)boronic acid], the inhibition at 1 µM in assay [1] (Homo sapiens, A549) came out at 8.7%; in assay [2] (Homo sapiens, HCT-116) it was 14.5%; in assay [3] (Homo sapiens, A-375), 4.1%. Further, the inhibition at 10 µM was 7.9% in assay [1] (Homo sapiens, A549); 33.9% in assay [2] (Homo sapiens, HCT-116); 45.2% in assay [3] (Homo sapiens, A-375).

As for `CC(C)C[C@H](NC(=O)Cn1nc(-c2ccccc2OS(=O)(=O)c2cccc(C(F)(F)F)c2)cc1-c1ccc(Cl)cc1)B(O)O` [Compound 17, (R)-(1-(2-(5-(4-chlorophenyl)-3-(2-(((3-(trifluoromethyl)phenyl)sulfonyl)oxy)phenyl)-1H-pyrazol-1-yl)acetamido)-3-methylbutyl)boronic acid], the inhibition at 1 µM in assay [1] (Homo sapiens, A549) came out at 0.3%; in assay [2] (Homo sapiens, HCT-116) it was 13.6%; in assay [3] (Homo sapiens, A-375) it was 8.3%. Besides, the inhibition at 10 µM in assay [1] (Homo sapiens, A549) was 1.9%; in assay [2] (Homo sapiens, HCT-116), 70.6%; in assay [3] (Homo sapiens, A-375), 56.1%.

In the case of `CC(C)C[C@H](NC(=O)Cn1nc(-c2ccc(OS(=O)(=O)c3cccc(C(F)(F)F)c3)cc2)cc1-c1ccccc1)B(O)O` [Compound 12, (R)-(3-methyl-1-(2-(5-phenyl-3-(4-(((3-(trifluoromethyl)phenyl)sulfonyl)oxy)phenyl)-1H-pyrazol-1-yl)acetamido)butyl)boronic acid], the inhibition at 1 µM worked out at 45.5% in assay [1] (Homo sapiens, A549); 45.8% in assay [2] (Homo sapiens, HCT-116); 83% in assay [3] (Homo sapiens, A-375). Also, the inhibition at 10 µM was found to be 85.3% in assay [1] (Homo sapiens, A549); 96.3% in assay [2] (Homo sapiens, HCT-116); 98.7% in assay [3] (Homo sapiens, A-375).

Consider `CC(C)C[C@H](NC(=O)Cn1nc(-c2ccccc2OS(=O)(=O)c2cccc(C(F)(F)F)c2)cc1-c1ccc(Br)cc1)B(O)O` [Compound 13, (R)-(1-(2-(5-(4-bromophenyl)-3-(2-(((3-(trifluoromethyl)phenyl)sulfonyl)oxy)phenyl)-1H-pyrazol-1-yl)acetamido)-3-methylbutyl)boronic acid], for which the inhibition at 1 µM in assay [1] (Homo sapiens, A549) is 4.5%; in assay [2] (Homo sapiens, HCT-116) it was 8.2%; in assay [3] (Homo sapiens, A-375) it was 8.1%. For the same compound, the inhibition at 10 µM turned out to be 10.4% in assay [1] (Homo sapiens, A549); 3.3% in assay [2] (Homo sapiens, HCT-116); 41.3% in assay [3] (Homo sapiens, A-375).

Consider `CC(C)C[C@H](NC(=O)Cn1nc(-c2ccccc2OS(=O)(=O)c2cccc(F)c2)cc1-c1ccccc1)B(O)O` [Compound 4, (R)-(1-(2-(3-(2-(((3-fluorophenyl)sulfonyl)oxy)phenyl)-5-phenyl-1H-pyrazol-1-yl)-acetamido)-3-methylbutyl)boronic acid], for which the inhibition at 1 µM was found to be 15% in assay [1] (Homo sapiens, A549); 6.2% in assay [2] (Homo sapiens, HCT-116); 5.6% in assay [3] (Homo sapiens, A-375). Further, the inhibition at 10 µM in assay [1] (Homo sapiens, A549) came out at 69.3%; in assay [2] (Homo sapiens, HCT-116), 97.6%; in assay [3] (Homo sapiens, A-375), 98.2%.

As for `CC(C)C[C@H](NC(=O)Cn1nc(-c2ccccc2OS(=O)(=O)c2cccc(Cl)c2)cc1-c1ccccc1)B(O)O` [Compound 5, (R)-(1-(2-(3-(2-(((3-chlorophenyl)sulfonyl)oxy)phenyl)-5-phenyl-1H-pyrazol-1-yl)-acetamido)-3-methylbutyl)boronic acid], the inhibition at 1 µM in assay [1] (Homo sapiens, A549) worked out at 10.2%; in assay [2] (Homo sapiens, HCT-116), 9%; in assay [3] (Homo sapiens, A-375) it was 2.2%. The inhibition at 10 µM in assay [1] (Homo sapiens, A549) was 67.2%; in assay [2] (Homo sapiens, HCT-116) it was 97.3%; in assay [3] (Homo sapiens, A-375), 97.9%.

With `CC(C)C[C@H](NC(=O)Cn1nc(-c2ccccc2OS(=O)(=O)c2ccccc2C(F)(F)F)cc1-c1ccccc1)B(O)O` [Compound 3, (R)-(3-methyl-1-(2-(5-phenyl-3-(2-(((2-(trifluoromethyl)phenyl)sulfonyl)oxy)phenyl)-1H-pyrazol-1-yl)acetamido)butyl)boronic acid], the inhibition at 1 µM came to 17.1% in assay [1] (Homo sapiens, A549); 3% in assay [2] (Homo sapiens, HCT-116); 5.7% in assay [3] (Homo sapiens, A-375). Moreover, the inhibition at 10 µM in assay [1] (Homo sapiens, A549) came out at 60.6%; in assay [2] (Homo sapiens, HCT-116) it was 97.8%; in assay [3] (Homo sapiens, A-375), 98.2%.

Turning to `CC(C)C[C@H](NC(=O)Cn1nc(-c2ccccc2OS(=O)(=O)c2cccc(C(F)(F)F)c2)cc1-c1ccc(F)cc1)B(O)O` [Compound 16, (R)-(1-(2-(5-(4-fluorophenyl)-3-(2-(((3-(trifluoromethyl)phenyl)sulfonyl)oxy)phenyl)-1H-pyrazol-1-yl)acetamido)-3-methylbutyl)boronic acid], the inhibition at 1 µM in assay [1] (Homo sapiens, A549) was 1.6%; in assay [2] (Homo sapiens, HCT-116), 8.3%; in assay [3] (Homo sapiens, A-375) it was 14.2%. For the same compound, the inhibition at 10 µM in assay [1] (Homo sapiens, A549) was found to be 36.9%; in assay [2] (Homo sapiens, HCT-116) it was 93.8%; in assay [3] (Homo sapiens, A-375) it was 91.9%.

For the compound `CC(C)C[C@H](NC(=O)Cn1nc(-c2cccc(OS(=O)(=O)c3cccc(C(F)(F)F)c3)c2)cc1-c1ccccc1)B(O)O` [Compound 28], the values for the IC50 in assay [1], in assay [2] and in assay [3] were 8680 nM, 3410 nM and 8250 nM, respectively.

Turning to `CC(C)[C@H](NC(=O)Cn1nc(-c2ccccc2OS(=O)(=O)c2cccc(C(F)(F)F)c2)cc1-c1ccccc1Br)B(O)O` [Compound 15, (R)-(1-(2-(5-(2-bromophenyl)-3-(2-(((3-trifluoromethylphenyl)sulfonyl)oxy)phenyl)-1H-pyrazol-1-yl)acetamido)isobutyl)boronic acid], the inhibition at 1 µM came out at 7.5% in assay [1] (Homo sapiens, A549); 5% in assay [2] (Homo sapiens, HCT-116); 3% in assay [3] (Homo sapiens, A-375). For the same compound, the inhibition at 10 µM in assay [1] (Homo sapiens, A549) came to 1.5%; in assay [2] (Homo sapiens, HCT-116), 3.6%; in assay [3] (Homo sapiens, A-375) it was 67.2%.

For the compound `COc1ccc(-c2cc(-c3ccccc3OS(=O)(=O)c3cccc(C(F)(F)F)c3)nn2CC(=O)N[C@@H](CC(C)C)B(O)O)cc1` [Compound 21, (R)-(1-(2-(5-(4-methoxyphenyl)-3-(2-(((3-(trifluoromethyl)phenyl)sulfonyl)oxy)phenyl)-1H-pyrazol-1-yl)acetamido)-3-methylbutyl)boronic acid], the inhibition at 1 µM worked out at 4.4% in assay [1] (Homo sapiens, A549); 11.4% in assay [2] (Homo sapiens, HCT-116); 2% in assay [3] (Homo sapiens, A-375). Moreover, the inhibition at 10 µM in assay [1] (Homo sapiens, A549) is 6.4%; in assay [2] (Homo sapiens, HCT-116), 62.2%; in assay [3] (Homo sapiens, A-375) it was 44.1%.

Regarding `CC(C)C[C@H](NC(=O)Cn1nc(-c2cccc(OCCCN3CCOCC3)c2)cc1-c1ccccc1)B(O)O` [Compound 31, (R)-(3-methyl-1-(2-(3-(3-(3-morpholinopropoxy)phenyl)-5-phenyl-1H-pyrazol-1-yl)acetamido)butyl)boronic acid hydrochloride], the IC50 in assay [1] (Homo sapiens, A549) was determined as 2190 nM; in assay [2] (Homo sapiens, HCT-116), 500 nM; in assay [3] (Homo sapiens, A-375), 690 nM.

Consider `CC(C)C[C@H](NC(=O)Cn1nc(-c2ccccc2OS(=O)(=O)c2cc(Cl)ccc2Cl)cc1-c1ccccc1)B(O)O` [Compound 7, (R)-(1-(2-(3-(2-(((2,5-dichlorophenyl)sulfonyl)oxy)phenyl)-5-phenyl-1H-pyrazol-1-yl)-acetamido)-3-methylbutyl)boronic acid], for which the inhibition at 1 µM in assay [1] (Homo sapiens, A549) worked out at 16.5%; in assay [2] (Homo sapiens, HCT-116), 3.5%; in assay [3] (Homo sapiens, A-375) it was 3.7%. In addition, the inhibition at 10 µM in assay [1] (Homo sapiens, A549) stood at 52%; in assay [2] (Homo sapiens, HCT-116) it was 96.6%; in assay [3] (Homo sapiens, A-375), 96%.
